The values below come from patent EP4810040A2, “INHIBITORS OF APOL1 AND METHODS OF USING SAME” (priority 2020, dated 2022).

A word on the IC90: it is the concentration at which the effect reaches the 90% level. As a reminder, the IC50 is the concentration that gives 50% inhibition. The low end stands for inhibition by little substance, the high end for a need for much substance.

In this experiment the target is T1, APOL1 G1 (Homo sapiens, UniProt O14791, I384M/S342G).
T1 sequence (O14791 28-398 S342G/I384M): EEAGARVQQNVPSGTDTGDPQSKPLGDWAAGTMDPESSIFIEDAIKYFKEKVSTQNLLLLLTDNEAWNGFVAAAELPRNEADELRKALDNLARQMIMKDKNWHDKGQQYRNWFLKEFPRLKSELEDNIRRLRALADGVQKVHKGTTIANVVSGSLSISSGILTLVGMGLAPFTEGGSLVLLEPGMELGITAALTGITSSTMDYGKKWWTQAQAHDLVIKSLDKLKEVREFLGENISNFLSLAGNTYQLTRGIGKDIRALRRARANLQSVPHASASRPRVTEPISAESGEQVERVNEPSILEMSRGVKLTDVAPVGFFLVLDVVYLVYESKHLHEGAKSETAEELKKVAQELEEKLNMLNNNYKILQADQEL
The experiment in a line: MultiTox-Fluor Multiplex Cytotoxicity Assay, tet-inducible APOL1 G1 T-REx-HEK293 cells. The class given is cell-based. The arrangement: expressed in transfected cells; host or cells: T-REx HEK293, clone G1 DC3.25 (pAAVS1-Puro-APOL1 G1). To be noted: for IC90: read-out: Multi-Tox Assay IC90; for Multi-Tox Assay Max Activity (%) / Emax: APOL1 variant not given; for Emax: read-out: Multi-Tox Assay Max Activity (%). Summed up:
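T-REx-HEK293 cells carrying tet-inducible APOL1 G1 induced with 50 ng/mL tet alongside compound (top 10 µM, 10-point 3-fold, duplicate) for 24 h at 37 °C. MultiTox-Fluor dead/live protease fluorescence ratio read after 30 min; normalized to no-tet (100% viability) and tet-treated (0%) controls, then curve-fitted.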

Setting [1] is: HEK293, Multi-Tox Assay, APOL1 variant (G0/G1/G2) of the HEK293 cells not given.
[2] abbreviates: Multi-Tox Assay, APOL1 variant (G0/G1/G2) not stated in Table 46.

Like-named read-outs stand apart in the source and are kept apart here.

For the compound `C[C@H]1C[C@@]2(C[C@@H](c3cn(CCOc4ccccc4F)nn3)N1)OCC(F)(F)c1cc(Cl)sc12` [Compound 354], the IC90 under setting [1] was 0.05 to 0.5 µM.

With `C[C@H]1C[C@@]2(C[C@@H](c3ccnc(N(C)C)n3)N1)OCCc1cc(Cl)sc12` (racemic) [Compound 127], the IC90 under setting [1] fell in the range of 0.05 to 0.5 µM. For the same compound, the “Multi-Tox Assay Max Activity (%)” value (Multi-Tox Assay) is listed as 99.3%.

For the compound `CC(CO)Cn1cc([C@@H]2C[C@]3(C[C@H](C)N2)OCC(F)(F)c2cc(Cl)sc23)nn1` (some centres unmarked) [Compound 370], the IC90 under setting [2] is 0.05 to 0.5 µM. Under “Multi-Tox Assay, IP50 = IC50 for cell proliferation, APOL1 variant not stated in Table 46”, this compound yielded a half-maximal inhibitory concentration (IC50) of 0.05 to 0.5 µM.

Turning to `CC1CC2(CC(c3cccc(C#N)c3)N1)OCCc1cc(Cl)sc12` (centres unmarked) [Compound 24], the 90% effect concentration (IC90) under setting [1] is under 0.05 µM. Moreover, the “Multi-Tox Assay Max Activity (%)” value (Multi-Tox Assay) was 100.0%.

Turning to `C[C@H]1C[C@@]2(C[C@@H](c3cnn(C)c3)N1)OCCc1cc(Cl)sc12` [Compound 19, (2S)-2-chloro-2'-methyl-6'-(1-methylpyrazol-4-yl)spiro[4,5-dihydrothieno[2,3-c]pyran-7,4'-piperidine]], the concentration for an effect of 90% (IC90) under setting [1] is under 0.05 µM. Further, the Emax (Multi-Tox Assay) was 99.3%.

Turning to `COc1ccc([C@@H]2C[C@]3(C[C@H](C)N2)OCCc2cc(Cl)sc23)c(F)c1` (racemic) [Compound 44], the IC90 under setting [1] was under 0.05 µM. The “Multi-Tox Assay Max Activity (%)” value (Multi-Tox Assay) is 99.5%.

Regarding `Cc1ccnn1CCn1cc([C@@H]2C[C@]3(C[C@H](C)N2)OCC(F)(F)c2cc(Cl)sc23)nn1` [Compound 315], the IC90 under setting [1] was 0.05 to 0.5 µM. In addition, the “Multi-Tox Assay Max Activity (%)” value (Multi-Tox Assay) is listed as 98.0%.

Take `COc1ccc2[nH]c([C@@H]3C[C@]4(C[C@H](C)N3)OCCc3cc(Cl)sc34)cc2n1` (racemic) [Compound 84]: under setting [1], the IC90 is under 0.05 µM. Besides, where the note is “Multi-Tox Assay”, the Emax came to 99.8%.

Turning to `COCc1cc([C@@H]2C[C@]3(C[C@H](C)N2)OCCc2cc(Cl)sc23)no1` (racemic) [Compound 106], the 90% effect concentration (IC90) under setting [1] is under 0.05 µM. The “Multi-Tox Assay Max Activity (%)” value (Multi-Tox Assay) is listed as 99.7%.

Consider `CCOc1ccc([C@@H]2C[C@]3(C[C@H](C)N2)OCCc2cc(Cl)sc23)nc1` (racemic) [Compound 69], for which, under setting [1], the IC90 was under 0.05 µM. The Emax (Multi-Tox Assay) came out at 99.7%.

With `COc1cc(O)cc([C@@H]2C[C@]3(C[C@H](C)N2)OCCc2cc(Cl)sc23)c1` (racemic) [Compound 137], the IC90 under setting [1] is 0.05 to 0.5 µM. Further, the “Multi-Tox Assay Max Activity (%)” value (Multi-Tox Assay) was 98.7%.

On to `Cc1ccc([C@@H]2C[C@]3(C[C@H](C)N2)OCCc2cc(Cl)sc23)nc1` (racemic) [Compound 77], for which the 90% effect concentration (IC90) under setting [1] was under 0.05 µM. The Emax (Multi-Tox Assay) stood at 99%.

In the case of `Cc1nc([C@@H]2C[C@]3(C[C@H](C)N2)OCCc2cc(Cl)sc23)oc1C` (racemic) [Compound 144], the IC90 under setting [1] was over 0.5 µM. Moreover, the “Multi-Tox Assay Max Activity (%)” value (Multi-Tox Assay) was found to be 98.0%.

In the case of `C[C@H]1C[C@@]2(C[C@@H](c3cn(C)nn3)N1)OCC(O)(C(F)F)c1cc(Cl)sc12` (single isomer, unassigned) [Compound 184], under setting [1], the IC90 was in the range of 0.05 to 0.5 µM. Moreover, the Emax (Multi-Tox Assay) stood at 99.3%.

Take `C[C@H]1C[C@@]2(C[C@@H](c3cccc(-c4cn[nH]c4)c3)N1)OCCc1cc(Cl)sc12` (racemic) [Compound 148]: the concentration for an effect of 90% (IC90) under setting [1] lay in the range of 0.05 to 0.5 µM. For the same compound, the “Multi-Tox Assay Max Activity (%)” value (Multi-Tox Assay) is reported as 97.0%.

For `C[C@H]1C[C@@]2(C[C@@H](c3cn(CC4CCOCC4)nn3)N1)OC[C@@H](O)c1cc(Cl)sc12` [Compound 267], under setting [1], the IC90 lay within 0.05 to 0.5 µM.

Turning to `C[C@H]1C[C@@]2(C[C@@H](c3cn4c(n3)COCC4)N1)OCCc1cc(Cl)sc12` (racemic) [Compound 74], the 90% effect concentration (IC90) under setting [1] was under 0.05 µM. The Emax (Multi-Tox Assay) stood at 99.2%.

For the compound `C[C@@H]1CC2(C[C@H](C)N1)OCCc1cc(CC(F)F)sc12` (single isomer, unassigned) [Compound 203], the concentration for an effect of 90% (IC90) under setting [1] is under 0.05 µM. In addition, the Emax (Multi-Tox Assay) is 99.3%.

`C[C@H]1C[C@@]2(C[C@@H](c3cn(CCC(N)=O)nn3)N1)OC[C@@H](O)c1cc(Cl)sc12` [Compound 288]: under setting [1], the IC90 is 0.05 to 0.5 µM. Also, the “Multi-Tox Assay Max Activity (%)” value (Multi-Tox Assay) was determined as 97.0%.

On to `Cc1cc([C@@H]2C[C@]3(C[C@H](C)N2)OCCc2cc(Cl)sc23)on1` (racemic) [Compound 66], for which the 90% effect concentration (IC90) under setting [1] was under 0.05 µM. Under “Multi-Tox Assay”, the Emax stood at 99.8%.

As to `C[C@H]1CC2(C[C@H](C)N1)OCCc1sc(C(F)(F)F)cc12` (some centres unmarked) [Compound 195], under setting [1], the IC90 is over 0.5 µM. Moreover, the Emax (Multi-Tox Assay) stood at 76%.

For `C[C@H]1C[C@@]2(C[C@@H](c3cccc(S(N)(=O)=O)c3)N1)OCCc1cc(Cl)sc12` (racemic) [Compound 147], the concentration for an effect of 90% (IC90) under setting [1] is over 0.5 µM. Besides, under “Multi-Tox Assay”, the “Multi-Tox Assay Max Activity (%)” value amounted to 92.3%.

As for `COCCOCCn1cc([C@@H]2C[C@]3(C[C@H](C)N2)OCC(F)(F)c2cc(Cl)sc23)nn1` [Compound 340], the 90% effect concentration (IC90) under setting [1] is 0.05 to 0.5 µM. Moreover, the “Multi-Tox Assay Max Activity (%)” value (Multi-Tox Assay) worked out at 98.0%.

On to `C[C@H]1C[C@@]2(C[C@@H](c3cn(CC#N)nn3)N1)OC[C@@H](O)c1cc(Cl)sc12` [Compound 255], for which the IC90 under setting [1] lay within 0.05 to 0.5 µM. Moreover, the “Multi-Tox Assay Max Activity (%)” value (Multi-Tox Assay) is given as 100.0%.

Consider `CC1CC2(CC(c3ccncc3)N1)OCCc1cc(Cl)sc12` (centres unmarked) [Compound 30], for which, under setting [1], the IC90 was under 0.05 µM.

Consider `C[C@H]1C[C@@]2(C[C@@H](c3cccc4[nH]c(=O)oc34)N1)OCCc1cc(Cl)sc12` (racemic) [Compound 141], for which, under setting [1], the IC90 fell in the range of 0.05 to 0.5 µM. In addition, the “Multi-Tox Assay Max Activity (%)” value (Multi-Tox Assay) is given as 96.3%.

With `CCOCCn1cc([C@@H]2C[C@]3(C[C@H](C)N2)OC[C@@H](O)c2cc(Cl)sc23)nn1` [Compound 257], under setting [1], the IC90 was 0.05 to 0.5 µM. For the same compound, the “Multi-Tox Assay Max Activity (%)” value (Multi-Tox Assay) is on record as 101.0%.

`C[C@H]1C[C@@]2(C[C@@H](c3cn(Cc4ccc(O)nc4)nn3)N1)OC[C@@H](O)c1cc(Cl)sc12` [Compound 275]: the concentration for an effect of 90% (IC90) under setting [1] is over 0.5 µM. In addition, the “Multi-Tox Assay Max Activity (%)” value (Multi-Tox Assay) is recorded as 94.0%.

Turning to `C[C@H]1C[C@@]2(C[C@@H](c3cccc(S(C)(=O)=O)c3)N1)OCCc1cc(Cl)sc12` (racemic) [Compound 146], under setting [1], the IC90 is 0.05 to 0.5 µM. Further, the “Multi-Tox Assay Max Activity (%)” value (Multi-Tox Assay) is on record as 97.0%.

For `C[C@H]1C[C@@]2(C[C@@H](c3cccc(C(N)=O)c3)N1)OCCc1cc(Cl)sc12` (racemic) [Compound 109], under setting [1], the IC90 was in the range of 0.05 to 0.5 µM. For the same compound, the “Multi-Tox Assay Max Activity (%)” value (Multi-Tox Assay) came to 100.0%.

In the case of `C[C@H]1C[C@@]2(C[C@@H](C3(N)CC3)N1)OCCc1cc(Cl)sc12` [Compound 373, 1-[(2'S,6'S,7S)-2-chloro-6'-methyl-spiro[4,5-dihydrothieno[2,3-c]pyran-7,4'-piperidine]-2'-yl]cyclopropanamine], the IC90 under setting [2] was 0.05 to 0.5 µM.

Consider `CCC(O)Cn1cc([C@@H]2C[C@]3(C[C@H](C)N2)OCC(F)(F)c2cc(Cl)sc23)nn1` (some centres unmarked) [Compound 325], for which the IC90 under setting [1] is 0.05 to 0.5 µM. Also, the “Multi-Tox Assay Max Activity (%)” value (Multi-Tox Assay) amounted to 98.0%.

For the compound `Cc1cc([C@@H]2C[C@]3(C[C@H](C)N2)OCCc2cc(Cl)sc23)nn1C` (racemic) [Compound 98], the IC90 under setting [1] was under 0.05 µM.

Take `CC(CO)CCn1cc([C@@H]2C[C@]3(C[C@H](C)N2)OCC(F)(F)c2cc(Cl)sc23)nn1` (some centres unmarked) [Compound 306]: under setting [1], the IC90 is over 0.5 µM.
